Laboratory results taken from PubChem BioAssay AID330 (DTP/NCI, 2004).
Where “and” joins values, the source holds several entries; their conditions need not be identical. Equal entries are not always repeated. Toxic doses and inconclusive results are not listed. How the source made its calls: active means survival T/C of 150% or more; inactive means T/C below 125% in these data.

Tested on: P388 leukemia ip, CD2F1 mice, survival T/C
Assay: NCI In Vivo Anticancer Drug Screen. Data for tumor model P388 Leukemia (intraperitoneal) in CD2F1 (CDF1) mice
Conditions: endpoint: median survival time, higher = longer survival
How it was run: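 Mice carrying the transplanted tumor received test compound or vehicle. Survival was recorded in each group, and the value is the treated-group measurement divided by that of the vehicle-treated control group.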

[1] = dose: 50.0 mg/kg/injection, schedule: Q01DX005 (ip), vehicle: Klucel (hydroxypropylcellulose) (HPC)
[2] = dose: 100.0 mg/kg/injection, schedule: Q01DX005 (ip), vehicle: Klucel (hydroxypropylcellulose) (HPC)
[3] = dose: 50.0 mg/kg/injection, schedule: Q01DX009 (ip), vehicle: saline
[4] = dose: 100.0 mg/kg/injection, schedule: Q01DX009 (ip), vehicle: saline
[5] = dose: 200.0 mg/kg/injection, schedule: Q01DX009 (ip), vehicle: saline
[6] = dose: 400.0 mg/kg/injection, schedule: Q01DX009 (ip), vehicle: saline
[7] = dose: 25.0 mg/kg/injection, schedule: Q01DX009 (ip), vehicle: saline with Tween-80
[8] = dose: 100.0 mg/kg/injection, schedule: Q01DX009 (ip), vehicle: saline with Tween-80
[9] = dose: 60.0 mg/kg/injection, schedule: Q01DX005 (ip), vehicle: Klucel (hydroxypropylcellulose) (HPC)
[10] = dose: 120.0 mg/kg/injection, schedule: Q01DX005 (ip), vehicle: Klucel (hydroxypropylcellulose) (HPC)
[11] = dose: 60.0 mg/kg/injection, schedule: Q01DX005 (ip), vehicle: saline with Tween-80
[12] = dose: 120.0 mg/kg/injection, schedule: Q01DX005 (ip), vehicle: saline with Tween-80
[13] = dose: 50.0 mg/kg/injection, schedule: Q01DX009 (ip), vehicle: saline with Tween-80

Measured: T/C

CN(C)CCN1C(=O)c2cccc3cc([N+](=O)[O-])cc(c23)C1=O
inactive: dose: 0.78 mg/kg/injection, schedule: Q01DX009 (ip), vehicle: saline with Tween-80 101 % of control | dose: 3.12 mg/kg/injection, schedule: Q01DX009 (ip), vehicle: saline with Tween-80 117 % of control and 124 % of control

CCOC(=O)C1=C(C)NC(=O)NC1c1cc(OC)c(OC)c(OC)c1 (configuration not stated)
inactive: [1] 98 % of control | [2] 96 % of control | dose: 200.0 mg/kg/injection, schedule: Q01DX005 (ip), vehicle: Klucel (hydroxypropylcellulose) (HPC) 94 % of control

O/N=C\C(=N/O)c1ccc(O)c(O)c1
inactive: dose: 100.0 mg/kg/injection, schedule: Q04DX002 (ip), vehicle: saline with Tween-80 107 % of control | dose: 200.0 mg/kg/injection, schedule: Q04DX002 (ip), vehicle: saline with Tween-80 108 % of control | dose: 400.0 mg/kg/injection, schedule: Q04DX002 (ip), vehicle: saline with Tween-80 102 % of control

O=C(CN1CCCCCC1)Nc1ccc2c(c1)C(=O)c1ccc(NC(=O)CN3CCCCCC3)cc1C2=O
inactive: [1] 89 % of control | dose: 50.0 mg/kg/injection, schedule: Q01DX005 (ip), vehicle: acid diluted with saline 97 % of control | [2] 89 % of control | dose: 100.0 mg/kg/injection, schedule: Q01DX005 (ip), vehicle: acid diluted with saline 99 % of control | dose: 200.0 mg/kg/injection, schedule: Q01DX005 (ip), vehicle: acid diluted with saline 100 % of control

CCO/C=C(/C#N)C(=O)OC
inactive: dose: 100.0 mg/kg/injection, schedule: Q04DX002 (ip), vehicle: saline 100 % of control | dose: 200.0 mg/kg/injection, schedule: Q04DX002 (ip), vehicle: saline 101 % of control | dose: 400.0 mg/kg/injection, schedule: Q04DX002 (ip), vehicle: saline 100 % of control

CNC(=O)OCc1ccc(NCCN(C)C)c2c(=O)c3cc(O)ccc3oc12
inactive: dose: 0.38 mg/kg/injection, schedule: Q01DX005 (ip), vehicle: Klucel (hydroxypropylcellulose) (HPC) 97 % of control | dose: 0.75 mg/kg/injection, schedule: Q01DX005 (ip), vehicle: Klucel (hydroxypropylcellulose) (HPC) 106 % of control | dose: 1.5 mg/kg/injection, schedule: Q01DX005 (ip), vehicle: Klucel (hydroxypropylcellulose) (HPC) 113 % of control | dose: 3.0 mg/kg/injection, schedule: Q01DX005 (ip), vehicle: Klucel (hydroxypropylcellulose) (HPC) 124 % of control | dose: 6.0 mg/kg/injection, schedule: Q01DX005 (ip), vehicle: Klucel (hydroxypropylcellulose) (HPC) 120 % of control

CCOC(=O)/C=C(/CC(=O)OCC)OCC
inactive: [3] 100 % of control | [4] 89 % of control | [5] 90 % of control | [6] 101 % of control

CCN(CC)CCCC(C)n1c2nc(=O)[nH]c(=O)c-2nc2ccc(Cl)cc21 (configuration not stated)
inactive: dose: 6.25 mg/kg/injection, schedule: Q01DX005 (ip), vehicle: saline 100 % of control | dose: 12.5 mg/kg/injection, schedule: Q01DX005 (ip), vehicle: saline 107 % of control | dose: 25.0 mg/kg/injection, schedule: Q01DX005 (ip), vehicle: saline 112 % of control

COc1ccc2ccccc2c1Cc1ccc(N(C)C)cc1Cl
inactive: dose: 50.0 mg/kg/injection, schedule: Q01DX005 (ip), vehicle: saline with Tween-80 92 % of control | dose: 100.0 mg/kg/injection, schedule: Q01DX005 (ip), vehicle: saline with Tween-80 95 % of control | dose: 200.0 mg/kg/injection, schedule: Q01DX005 (ip), vehicle: saline with Tween-80 90 % of control

CNS(=O)(=O)Cc1ccccc1
inactive: [3] 107 % of control | [4] 107 % of control | [5] 100 % of control | [6] 108 % of control

CC(C)=CCCC(C)(O)C1CC=C(C)CC1 (configuration not stated)
inactive: dose: 20.0 mg/kg/injection, schedule: Q01DX005 (ip), vehicle: Klucel (hydroxypropylcellulose) (HPC) 95 % of control | dose: 40.0 mg/kg/injection, schedule: Q01DX005 (ip), vehicle: Klucel (hydroxypropylcellulose) (HPC) 95 % of control | dose: 80.0 mg/kg/injection, schedule: Q01DX005 (ip), vehicle: Klucel (hydroxypropylcellulose) (HPC) 98 % of control | dose: 160.0 mg/kg/injection, schedule: Q01DX005 (ip), vehicle: Klucel (hydroxypropylcellulose) (HPC) 98 % of control

CNc1ccccc1C(=O)N1CCc2c([nH]c3ccccc23)C1=O
inactive: [7] 98 % of control | [8] 93 % of control

COc1cc(NC(=O)C2=C(C)NC(C)=C(C(=O)Nc3cc(OC)c(Cl)cc3OC)C2c2cccc([N+](=O)[O-])c2)c(OC)cc1Cl
inactive: [9] 89 % of control | [10] 89 % of control

CN(C)CCOC(=O)Nc1cc(Cl)cc(Cl)c1
inactive: [11] 103 % of control | [12] 103 % of control

CCCCCCCC(=O)C1C(=O)OC(C)(C)OC1=O
inactive: [11] 100 % of control | [12] 100 % of control

CC(C)N1CCOC(c2cccc(C(F)(F)F)c2)C1 (configuration not stated)
inactive: [3] 101 % of control | [4] 99 % of control

COc1cc([C@H]2c3cc4c(cc3C[C@H]3COC(=O)[C@@H]32)OCO4)cc(OC)c1OC
inactive: dose: 12.5 mg/kg/injection, schedule: Q04DX002 (ip), vehicle: saline with Tween-80 92 % of control | dose: 25.0 mg/kg/injection, schedule: Q04DX002 (ip), vehicle: saline with Tween-80 86 % of control | dose: 50.0 mg/kg/injection, schedule: Q04DX002 (ip), vehicle: saline with Tween-80 89 % of control

C1CC[C@]2([C@]34CCCC[C@H]3O4)O[C@@H]2C1
inactive: [9] 99 % of control | [10] 100 % of control | dose: 240.0 mg/kg/injection, schedule: Q01DX005 (ip), vehicle: Klucel (hydroxypropylcellulose) (HPC) 104 % of control

CN(C)CCOc1ccccn1
inactive: [3] 98 % of control | [4] 101 % of control

CN(C)CCSSCCN(C)C.[Cl][Zn][Cl]
inactive: dose: 6.25 mg/kg/injection, schedule: Q01DX005 (ip), vehicle: Klucel (hydroxypropylcellulose) (HPC) 102 % of control | dose: 12.5 mg/kg/injection, schedule: Q01DX005 (ip), vehicle: Klucel (hydroxypropylcellulose) (HPC) 95 % of control | dose: 25.0 mg/kg/injection, schedule: Q01DX005 (ip), vehicle: Klucel (hydroxypropylcellulose) (HPC) 97 % of control

NN1C(=O)CS/C1=N\C(=S)N/N=C1/SCC(=O)N1N
inactive: dose: 0.04 mg/kg/injection, schedule: Q01DX009 (ip), vehicle: saline 94 % of control | dose: 0.09 mg/kg/injection, schedule: Q01DX009 (ip), vehicle: saline 97 % of control | dose: 0.19 mg/kg/injection, schedule: Q01DX009 (ip), vehicle: saline 99 % of control | dose: 0.78 mg/kg/injection, schedule: Q01DX009 (ip), vehicle: saline 98 % of control and 99 % of control

COc1ccc(C(Nc2ccccn2)c2cc(C(C)(C)C)cc(C(C)(C)C)c2O)cc1 (configuration not stated)
inactive: dose: 50.0 mg/kg/injection, schedule: Q01DX005 (ip), vehicle: distilled water + alcohol 105 % of control | dose: 100.0 mg/kg/injection, schedule: Q01DX005 (ip), vehicle: distilled water + alcohol 100 % of control | dose: 200.0 mg/kg/injection, schedule: Q01DX005 (ip), vehicle: distilled water + alcohol 109 % of control

C=CC(=O)NCCCCC(N)C(=O)O (configuration not stated)
inactive: [3] 100 % of control | [4] 100 % of control | [5] 97 % of control

Clc1cccc2c(-c3ccccc3)c3cccc(Cl)c3cc12
inactive: [13] 101 % of control | [8] 97 % of control | dose: 200.0 mg/kg/injection, schedule: Q01DX009 (ip), vehicle: saline with Tween-80 96 % of control

CN1C(=O)NC(c2ccc(Cl)cc2)(c2ccc(Cl)cc2)C1=O
inactive: dose: 5.0 mg/kg/injection, schedule: Q04DX003 (ip), vehicle: other 105 % of control | dose: 10.0 mg/kg/injection, schedule: Q04DX003 (ip), vehicle: other 104 % of control | dose: 20.0 mg/kg/injection, schedule: Q04DX003 (ip), vehicle: other 107 % of control | dose: 25.0 mg/kg/injection, schedule: Q04DX003 (ip), vehicle: other 101 % of control | dose: 40.0 mg/kg/injection, schedule: Q04DX003 (ip), vehicle: other 118 % of control | dose: 50.0 mg/kg/injection, schedule: Q04DX003 (ip), vehicle: other 119 % of control

O=CNc1ncc([N+](=O)[O-])s1
inactive: dose: 12.5 mg/kg/injection, schedule: Q01DX009 (ip), vehicle: saline with Tween-80 95 % of control | [7] 90 % of control | [13] 100 % of control and 102 % of control
